Measured values published in US11413278B2, “Compounds and methods for promoting stress resistance” (priority 2015, dated 2022).
Where two headings read alike, the source gives them in different places.

Tests used:
[1] = system: FOXO3; experiment: FOXO3 siRNA knockdown: dependency for H2O2-resistance; assay type: cell-based, human
[2] = system: C. elegans; experiment: C. elegans lifespan assays (liquid and plate); assay type: in vivo, Caenorhabditis elegans; conditions: for ILS at 60 µM / ILS at 66 µM: Caenorhabditis elegans; for O = Life span- extending scores in worms: score scale 0 to 2, 4 to 6 independent trials; for M = Lifespan-extending scores in worms: summary score
[3] = system: phosphorylated γH2A.X and TP53BP1; experiment: DNA damage marker analysis (immuno-staining); conditions: for activity at 10 µM: Homo sapiens, WI-38, 24 h; for P = Potential DNA-damaging / R = Potential DNA damaging: human, 24 h
Procedure, shortened: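 Immunofluorescence read-out for phospho-γH2A.X (Ser-139) and phospho-TP53BP1 (Ser-1778), with DAPI nuclear stain and automated imaging at 10×. WI-38 cells (~8,000 per well) were exposed to small molecules for 24 h after 24 h of culture, with doxorubicin (300 nM, 24 h) or H2O2 (700 μM, 3 h) as positive damage controls.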

[4] = system: WI-38 cells; experiment: Long-term effects on cell viability (5 days, ATP; morphology, PI imaging); assay type: cell-based; conditions: 10 μM; for Luminescence signal for ATP measurement, day-1 Average / Luminescence signal for ATP measurement, day-2 Average / Luminescence signal for ATP measurement, day-3 Average / Luminescence signal for ATP measurement, day-4 Average / Luminescence signal for ATP measurement, day-5 Average: n = 6; for viability at 10 µM: Homo sapiens, WI-38, 120 h, DMSO ctrl = 100.0%, read-out: ATP luminescence by day-5 normalized; for Luminescence signal for ATP measurement, day-5 Average / viability at 10 µM: day-5; for O = Potential toxicity / Q = Potential toxicity: human, 5 days;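 on Luminescence signal for ATP measurement, day-2 Average: compounds at 10 µM with ATP read daily over 5 days of treatment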;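 on Luminescence signal for ATP measurement, day-3 Average: compounds at 10 µM with ATP read daily over 5 days of treatment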;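 on Luminescence signal for ATP measurement, day-4 Average: compounds at 10 µM with ATP read daily over 5 days of treatment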;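 on Luminescence signal for ATP measurement, day-5 Average: compounds at 10 µM with ATP read daily over 5 days of treatment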
[5] = system: WI-38 cells; conditions: for No H2O2 stress treatment, at 10 uM (fold change): normalized ATP measurement; for Assay 1: H2O2-resistant: YES/NO, if NO, possibly due to repeated freezing/thawing of stocks
[6] = 60 μM, in liquid, wild type, with FuDR, 1.0 × 10^9 bacteria/ml, read-out: relative change of mean lifespan vs control, Trial 1
[7] = 60 μM, in liquid, wild type, with FuDR, 2.5 × 10^9 bacteria/ml, read-out: relative change of mean lifespan vs control, Trial 2
[8] = 60 μM, on plate, CF512 temperature-sensitive sterile animals, without FuDR, 2.0 × 10^10 bacteria/ml, read-out: relative change of mean lifespan vs control, Trial 3
[9] = Assay 2(z), 1.0 × 10^9 bacteria/ml, wild type + FuDR (2012 July), read-out: Lifespan assay in liquid
[10] = Assay 3(aa), 2.5 × 10^9 bacteria/ml, wild type + FuDR, read-out: Lifespan assay in liquid
[11] = Assay 4(ab), 2.0 × 10^10 bacteria/ml, CF512 worms, no FuDR, read-out: Lifespan assay on plates
[12] = read-out: Experiment 1, H2A.X-P DNA damage foci staining (no H2O2 stress treatment), at 10 uM
[13] = read-out: Experiment 2, H2A.X-P DNA damage foci staining (no H2O2 stress treatment), at 10 uM
[14] = read-out: Experiment 2, H2A.X-P DNA damage foci staining (under H2O2 stress treatment), at 10 uM
[15] = read-out: Experiment 2, TP53BP1-P DNA damage foci staining (no H2O2 stress treatment), at 10 uM
[16] = read-out: Experiment 2, TP53BP1-P DNA damage foci staining (under H2O2 stress treatment), at 10 uM
[17] = Batch 1, day-0 luminescence = 320956 ± 24708
[18] = WI-38 cells, 10 μM, (*) = compromised ability to protect cells from H2O2, could be due to stability issue
[19] = asterisks indicate the loss of the ability to protect cells from H2O2 over time
[20] = derived from dose response curves, 0.6-20 uM, H2O2-resistance of WI-38 cells
[21] = read-out: Est. ED50, dose response 0.6-20 μM, H2O2-resistance
[22] = Batch 2, day-0 luminescence = 229312 ± 17487

Row | Compound | I = FOXO3-dependency for H2O2-resistance ([1]; score) | I = FOXO3-dependency for H2O2-resistance ([1]; summary score) | ILS at 66 µM [2, 9] [%] | ILS at 66 µM [2, 10] [%] | ILS at 66 µM [2, 11] [%] | O = Life span- extending scores in worms [2] | M = Lifespan-extending scores in worms [2] | activity at 10 µM [3, 12] [%] | activity at 10 µM [3, 13] [%] | activity at 10 µM [3, 14] [%] | activity at 10 µM [3, 15] [%] | activity at 10 µM [3, 16] [%] | P = Potential DNA-damaging [3] | R = Potential DNA damaging [3] | O = Potential toxicity [4] | Q = Potential toxicity [4] | H2O2-resistant [5, 18] | No H2O2 stress treatment, at 10 uM (fold change) ([5]; WI-38 cells) | H2O2-resistant [5, 19] | EC50 [5, 20] [µM] | other results
1 | COC(=O)CCc1sc2c(c1[N+](=O)[O-])NC(=O)CCC2 [O20] | 1 | 1 | 18.8 | 3.4 | 11.3 | 1 (1 for lifespan extension observed in 2 trials) | 1 (1 for lifespan extension observed in 2 trials) | 115 | 130 | 178 | 108 | 544 | 0 | 0 | 1 | 0 | YES | 1.12 | YES | 12.9 | FOXO3-dependency for H2O2-resistance, at 10 uM - with H2O2, 2nd experiment ([1]; 10 uM, experiment 2 (2nd), with H2O2): 2nd, YES.; FOXO3-dependency for H2O2-resistance, at 10 uM (experiment 3) - with & without H2O2 ([1]; 10 uM, experiment 3, with & without H2O2): YES; FOXO3-dependency for H2O2-resistance (experiment 3) ([1]; 10 uM, with & without H2O2, FOXO3 knockdown in WI-38 cells, YES = resistance reduced by at least 50%, partial = 25% to 50%): YES; FOXO3-dependency for H2O2-resistance, 2nd experiment ([1]; 10 uM, with H2O2, FOXO3 knockdown in WI-38 cells, YES = resistance reduced by at least 50%, partial = 25% to 50%): YES.; Assay 16: FOXO3-dependency for H2O2-resistance ([1]; 10 uM, YES/NO): YES; Requirement of FOXO3 to promote H2O2-resistance ([1]; FOXO3 siRNA, at least 2 of 3 independent experiments): required FOXO3; ILS at 60 µM [2, 6]: 18.8%; ILS at 60 µM [2, 7]: 3.4%; ILS at 60 µM [2, 8]: 11.3%; Luminescence signal for ATP measurement, day-1 Average [4, 17]: 544305; Luminescence signal for ATP measurement, day-2 Average [4, 17]: 770055; Luminescence signal for ATP measurement, day-3 Average [4, 17]: 888893; Luminescence signal for ATP measurement, day-4 Average [4, 17]: 997113; Luminescence signal for ATP measurement, day-5 Average [4, 17]: 926888; viability at 10 µM ([4]; Batch 1): 90.3%; Assay 1: H2O2-resistant [5]: YES; EC50 [5, 21]: 12.9 µM
2 | O=C(Nc1cccc(Cl)c1)c1ccc([N+](=O)[O-])o1 [Gr-1D] | 0 | 0 | 18.2 | -0.5 | 10.5 | 1 (1 for lifespan extension observed in 2 trials) | 1 (1 for lifespan extension observed in 2 trials) | 232 | 353 | 164 | 353 | 554 | 1 | 1 | 1 | 0 | YES | 0.91 | YES | 4.6 | ILS at 60 µM [2, 6]: 18.2%; ILS at 60 µM [2, 7]: -0.5%; ILS at 60 µM [2, 8]: 10.5%; Luminescence signal for ATP measurement, day-1 Average [4, 17]: 396843; Luminescence signal for ATP measurement, day-2 Average [4, 17]: 497248; Luminescence signal for ATP measurement, day-3 Average [4, 17]: 542643; Luminescence signal for ATP measurement, day-4 Average [4, 17]: 797305; Luminescence signal for ATP measurement, day-5 Average [4, 17]: 865168; viability at 10 µM ([4]; Batch 1): 84.3%; Assay 1: H2O2-resistant [5]: YES; EC50 [5, 21]: 2.68 µM
3 | Nc1ccccc1S(=O)(=O)Nc1cccc2cccnc12 [Gr-3C] | 0 | 0 | 18.9 | 11.9 | 8 | 2 (2 for observed in more than 2 trials) | 2 (2 for observed in more than 2 trials) | 113 | 404 | 136 | 254 | 390 | 1 | 1 | 0 | 1 | YES | 0.95 | YES | 6.5 | ILS at 60 µM ([2]; read-out: relative change of mean lifespan vs control, Trial 1): 18.9%; ILS at 60 µM ([2]; read-out: relative change of mean lifespan vs control, Trial 2): 11.9%; ILS at 60 µM ([2]; read-out: relative change of mean lifespan vs control, Trial 3): 8%; Extension of C. elegans' lifespan (qualitative) ([2]; in at least 3 to 4 trials, group range ~10% to ~50%): could extend animal's lifespan; Luminescence signal for ATP measurement, day-1 Average [4, 22]: 190045; Luminescence signal for ATP measurement, day-2 Average [4, 22]: 194191; Luminescence signal for ATP measurement, day-3 Average [4, 22]: 270505; Luminescence signal for ATP measurement, day-4 Average [4, 22]: 244033; Luminescence signal for ATP measurement, day-5 Average [4, 22]: 265285; viability at 10 µM ([4]; Batch 2): 47.7%; EC50 [5, 21]: 4.6 µM
